IC50 data for 18 compounds are collected here from US10519177B2, “Heterocyclic compounds and uses thereof” (Plexxikon Inc., priority 2013, dated 2019).

One assay deals with bromodomain. Briefly: at least one of the bromodomain cell assays of Example 57. The assay is classed as cell-based. The following applies: at least one of the bromodomain cell assays described in Example 57; read-out: IC50 in at least one of the bromodomain cell assays.
Another assay has as its target BRD4-BD12 (1-477) (Homo sapiens (Human), UniProt O60885). The assay can be described thus: Alphascreen binding assay BRD4-BD12. The following applies: BRD4(1 2) H4; read-out: Biochemical activity (IC50 μM) BRD4(1 2) H4. The procedure, abridged:
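First, compound was preincubated 1 h at room temperature with the His-tagged BRD4 protein (BD1 44-164 or tandem BD12 1-477) and acetylated H4 peptide. Next, donor and acceptor beads were added at 7.5 μg/ml final. After 30 min, AlphaScreen emission was recorded.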

In another assay the test system is MV-4-11 cells. The assay can be described thus: Oncology cell growth assay MV-4-11 (CellTiter Glo). As to conditions: Homo sapiens, MV4-11, 72 h; read-out: Cell activity (IC50 μM) MV-4-11 3d-Growth. The assay is classed as cell-based. The procedure, abridged:
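MV-4-11 AML cells (MLL-AF4), 3000 per well, exposed to 8-point 1:3 compound titration from 10 μM top concentration (0.2% DMSO) for 72 h. Viability by CellTiter Glo luminescence, normalized to DMSO controls; pIC50 from four-parameter curve fit.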

In another assay the target is BRD4-BD1 (44-164) (Homo sapiens (Human), UniProt O60885). Briefly: Alphascreen binding assay BRD4-BD1. The following applies: BRD4(1) H4; read-out: Biochemical activity (IC50 μM) BRD4(1) H4. In outline:
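His-tagged E. coli-expressed BRD4 BD1 (44-164) or BD1-BD2 (1-477) incubated 1 h at room temperature with biotinylated tetra-acetylated histone H4 1-21 peptide and compound in HEPES pH 7.5, NaCl, BSA, Triton X-100, DTT buffer. Ni-chelate/streptavidin AlphaScreen beads (7.5 µg/ml) added, read after 30 min; pIC50 from four-parameter fit.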

pIC50: −log10 of the molar value. Where only a bound is given, the exact number is not on record here.

Consider `Cc1nnn(C)c1-c1cnc2c(-c3cnn(CC(F)(F)F)c3)cn(CC3CCC(F)(F)CC3)c2c1` [P-0311, 1-[(4,4-difluorocyclohexyl)methyl]-6-(3,5-dimethyltriazol-4-yl)-3-[1-(2,2,2-trifluoroethyl)pyrazol-4-yl]pyrrolo[3,2-b]pyridine], for which, in the assay on bromodomain, the pIC50 is > 5.00. The IC50 at BRD4-BD12 (1-477) is 1 to 10 µM; with MV-4-11 cells it was < 1 µM; at BRD4-BD1 (44-164) it was < 1 µM.
For `COc1ccc(-c2cnc3ccn(CC4CCC(F)(F)CC4)c3c2)cn1` [P-0312, 1-((4,4-difluorocyclohexyl)methyl]-6-(6-methoxy-3-pyridyl)pyrrolo[3,2-b]pyridine], in the assay on bromodomain, the negative logarithm of the IC50 (pIC50) is > 5.00. The results for the IC50 at BRD4-BD12 (1-477), in the assay on MV-4-11 cells and on BRD4-BD1 (44-164) were 10 to 200 µM, 10 to 200 µM and 1 to 10 µM, respectively.
Turning to `Cc1ccc(-c2cnc3ccn(CC4CCC(F)(F)CC4)c3c2)cn1` [P-0313, 1-[(4,4-difluorocyclohexyl)methyl]-6-(6-methyl-3-pyridyl)pyrrolo[3,2-b]pyridine], in the assay with bromodomain, the pIC50 is > 5.00. The concentration for half-maximal inhibition (IC50) was < 1 µM on BRD4-BD12 (1-477), 10 to 200 µM in the assay with MV-4-11 cells and 10 to 200 µM at BRD4-BD1 (44-164).
With `Cc1noc(C)c1-c1cnc2c(-c3cnn(C(F)F)c3)cn(C(CC#N)C3CCOCC3)c2c1` (stereo not drawn) [P-0314, 3-[3-[1-(difluoromethyl)pyrazol-4-yl]-6-(3,5-dimethylisoxazol-4-yl)pyrrolo[3,2-b]pyridin-1-yl]-3-tetrahydropyran-4-yl-propanenitrile], the pIC50 in the assay on bromodomain is > 5.00. Moreover, the IC50 at BRD4-BD12 (1-477), in the assay with MV-4-11 cells and at BRD4-BD1 (44-164) was < 1 µM in each case.
For `Cc1noc(C)c1-c1cnc2c(-c3cnn(CC(F)(F)F)c3)cn(C(CC#N)C3CC3)c2c1` (stereo not drawn) [P-0315, 3-cyclopropyl-3-[6-(3,5-dimethylisoxazol-4-yl)-3-[1-(2,2,2-trifluoroethyl)pyrazol-4-yl]pyrrolo[3,2-b]pyridin-1-yl]propanenitrile], the pIC50 in the assay on bromodomain is > 5.00. The IC50 at BRD4-BD12 (1-477), in the assay with MV-4-11 cells and on BRD4-BD1 (44-164) was < 1 µM throughout.
As for `Cc1noc(C)c1-c1cnc2c(-c3cnn(C)c3)cn(C(CC#N)C3CC3)c2c1` (stereo not drawn) [P-0316, 3-cyclopropyl-3-[6-(3,5-dimethylisoxazol-4-yl)-3-(1-methylpyrazol-4-yl)pyrrolo[3,2-b]pyridin-1-yl]propanenitrile], in the assay on bromodomain, the pIC50 was > 5.00. Besides, the IC50 at BRD4-BD12 (1-477), with MV-4-11 cells and at BRD4-BD1 (44-164) was < 1 µM throughout.
Take `Cc1noc(C)c1-c1cnc2c(-c3cnn(CC(F)(F)F)c3)cn(Cc3ccccc3)c2c1` [P-0317, 4-[1-benzyl-3-[1-(2,2,2-trifluoroethyl)pyrazol-4-yl]pyrrolo[3,2-b]pyridin-6-yl]-3,5-dimethyl-isoxazole]: the pIC50 in the assay on bromodomain is > 5.00. In addition, the IC50 at BRD4-BD12 (1-477), with MV-4-11 cells and on BRD4-BD1 (44-164) was < 1 µM each time.
Turning to `Cc1noc(C)c1-c1cnc2c(I)cn(Cc3ccccc3)c2c1` [P-0318, 4-(1-benzyl-3-iodo-pyrrolo[3,2-b]pyridin-6-yl)-3,5-dimethyl-isoxazole], in the assay with bromodomain, the pIC50 was > 5.00. The IC50 at BRD4-BD12 (1-477), with MV-4-11 cells and at BRD4-BD1 (44-164) was < 1 µM throughout.
On to `Cc1noc(C)c1-c1cnc2c(I)cn(Cc3ncccn3)c2c1` [P-0319, 4-[3-iodo-1-(pyrimidin-2-ylmethyl)pyrrolo[3,2-b]pyridin-6-yl]-3,5-dimethyl-isoxazole], for which the pIC50 in the assay with bromodomain is > 5.00. Further, the IC50 at BRD4-BD12 (1-477), in the assay with MV-4-11 cells and at BRD4-BD1 (44-164) was < 1 µM throughout.
`Cc1noc(C)c1-c1cnc2c(-c3cnn(CC(F)(F)F)c3)cn(C(C)c3ccccn3)c2c1` (stereo not drawn) [P-0320, 3,5-dimethyl-4-[1-[1-(2-pyridyl)ethyl]-3-[1-(2,2,2-trifluoroethyl)pyrazol-4-yl]pyrrolo[3,2-b]pyridin-6-yl]isoxazole]: in the assay with bromodomain, the pIC50 was > 5.00. Also, the IC50 on BRD4-BD12 (1-477), with MV-4-11 cells and at BRD4-BD1 (44-164) was < 1 µM each time.
As for `Cc1noc(C)c1-c1cnc2c(-c3cnn(CC(F)(F)F)c3)cn(CC3(F)CCC(F)(F)CC3)c2c1` [P-0321, 3,5-dimethyl-4-(1-[(1,4,4-trifluorocyclohexyl)methyl]-3-[1-(2,2,2-trifluoroethyl)pyrazol-4-yl]pyrrolo[3,2-b]pyridin-6-yl]isoxazole], in the assay with bromodomain, the negative logarithm of the IC50 (pIC50) is > 5.00. Moreover, the values for the IC50 on BRD4-BD12 (1-477), with MV-4-11 cells and at BRD4-BD1 (44-164) were 1 to 10 µM, < 1 µM and < 1 µM, respectively.
In the case of `Cc1nnc(CCl)n1-c1cnc2[nH]ccc2c1` [P-0322, 5-[3-(chloromethyl)-5-methyl-1,2,4-triazol-4-yl]-1H-pyrrolo[2,3-b]pyridine], the pIC50 in the assay with bromodomain is > 5.00. In addition, the IC50 on BRD4-BD12 (1-477) was in the range of 10 to 200 µM; in the assay on MV-4-11 cells it was 1 to 10 µM; on BRD4-BD1 (44-164), 10 to 200 µM.
`Cc1onc(NC(=O)OC(C)(C)C)c1-c1cnc2ccn(CC3CCC(F)(F)CC3)c2c1` [P-0323, tert-butyl N-[4-[1-[(4,4-difluorocyclohexyl)methyl]pyrrolo[3,2-b]pyridin-6-yl]-5-methyl-isoxazol-3-yl]carbamate]: the pIC50 in the assay on bromodomain was > 5.00. The results for the IC50 on BRD4-BD12 (1-477), in the assay with MV-4-11 cells and on BRD4-BD1 (44-164) were < 1 µM, 10 to 200 µM and 10 to 200 µM, respectively.
As for `Cc1noc(C)c1-c1cnc2c(-c3ccc(C(=O)O)cc3)cn(CC3CCC(F)(F)CC3)c2c1` [P-0324, 4-[1-[(4,4-difluorocyclohexyl)methyl]-6-(3,5-dimethylisoxazol-4-yl)pyrrolo[3,2-b]pyridin-3-yl]benzoic acid], the pIC50 in the assay on bromodomain was > 5.00. Moreover, the IC50 at BRD4-BD12 (1-477), in the assay with MV-4-11 cells and at BRD4-BD1 (44-164) was < 1 µM throughout.
On to `Cc1noc(C)c1-c1cnc2c(-c3cnn(C)c3)cn(Cc3ncccn3)c2c1` [P-0325, 3,5-dimethyl-4-[3-(1-methylpyrazol-4-yl)-1-(pyrimidin-2-ylmethyl)pyrrolo[3,2-b]pyridin-6-yl]isoxazole], for which the pIC50 with bromodomain is > 5.00. Also, the IC50 on BRD4-BD12 (1-477), with MV-4-11 cells and on BRD4-BD1 (44-164) was < 1 µM throughout.
`Cc1noc(C)c1-c1cnc2c(-c3cnn(C(F)F)c3)cn(Cc3ccccc3)c2c1` [P-0326, 4-[1-benzyl-3-[1-(difluoromethyl)pyrazol-4-yl]pyrrolo[3,2-b]pyridin-6-yl]-3,5-dimethyl-isoxazole]: the negative-log IC50 (pIC50) in the assay on bromodomain is > 5.00. The IC50 at BRD4-BD12 (1-477), in the assay with MV-4-11 cells and at BRD4-BD1 (44-164) was < 1 µM each time.
As to `Cc1noc(C)c1-c1cnc2c(-c3cnn(C)c3)cn(Cc3ccccc3)c2c1` [P-0327, 4-[1-benzyl-3-(1-methylpyrazol-4-yl)pyrrolo[3,2-b]pyridin-6-yl]-3,5-dimethyl-isoxazole], the pIC50 in the assay on bromodomain was > 5.00. Further, the IC50 on BRD4-BD12 (1-477), in the assay on MV-4-11 cells and on BRD4-BD1 (44-164) was < 1 µM throughout.
Regarding `Cc1noc(N)c1-c1cnc2ccn(CC3CCC(F)(F)CC3)c2c1` [P-0328, 4-[1-[(4,4-difluorocyclohexyl)methyl]pyrrolo[3,2-b]pyridin-6-yl]-3-methyl-isoxazol-5-amine], the pIC50 in the assay with bromodomain was > 5.00. The figures for the IC50 at BRD4-BD12 (1-477), in the assay on MV-4-11 cells and at BRD4-BD1 (44-164) were < 1 µM, 1 to 10 µM and < 1 µM, respectively.
